Experimental data reported in patent publication US20220184080A1 (Aerovate Therapeutics, Inc., priority 2019, published 2022).

Test: thermal stability of imatinib salt forms
Format: physicochemical
Conditions: method not described

Compound	thermal stability
tartrate	suitable thermal stability
malate	suitable thermal stability
O=S(=O)(O)CCO [isethionate]	suitable thermal stability
malonate	suitable thermal stability
